Experiments:
Saccharomyces cerevisiae = test: High-Life (High throughput replicative Lifespan measurement) flow cytometry assay in MEP yeast; format: cell-based; conditions: 10 μM, 24 hours in culture, 3-4 replicate wells, repeat of screen hits
Method: Cells were labeled with NHS-fluorescein as described above, then diluted to 20 cells/μL in media. 80 μL/well was aliquoted to 384-well plates, which were covered with a breathable membrane and placed on a shaker platform in a humidified incubator. After 3 hours, the plates were removed from the incubator and each well was treated with 20 μL pre-warmed, 30° C. 5 μM β-estradiol in media. In the case of ibuprofen or compound-treated wells, the compound was diluted in this volume at a 5× concentration to achieve a final concentration of 10 μM, or 100 μM for ibuprofen. The plates were then returned to the incubator. At indicated times, one plate was removed from the incubator and placed on an autosampler cooled to 8° C. attached to a Stratedigm flow cytometer. The cytometer was set to automatically add and mix 20 μL of aqueous solution containing 60 μg/mL CF405M-WGA (Biotium 29028) and propidium iodide (Sigma P4864) prior to acquiring 80 μL of sample for each well.
In order to test the lifespan of model organisms on both a large-scale and with quick turn-around, a massively multiplexed method was developed to measure replicative lifespan in the short-lived model organisms Saccharomyces cerevisiae. The protocol uses green-fluorescent labeling to identify progenitor cells, red-fluorescent labeling to differentiate non-viable cells, and blue-fluorescent labeling of bud scars to determine replicative age (FIG. 1). Each parameter is measured using a flow cytometer.
To achieve high throughput, the measurement system was automated, and the assay was performed in 384-well plates. The assay was performed using an autosampler-equipped flow cytometer, in a volume of 100 μL. Growth of even a single cell and its progeny in such a small volume will result in nutrient starvation before the natural replicative lifespan is exhausted; therefore to circumvent this issue, High-Life experiments were performed in the background of the Mother Enrichment Program (MEP) (Lindstrom and Gottschling, Genetics. 2009 October; 183(2):413-22). MEP strains express a CRE recombinase fused to an estrogen-binding domain for only a short time after birth. In the presence of β-estradiol, the recombinase translocates to the nucleus where it can excise two essential genes that have been modified to contain the exogenous LoxP sequence. Addition of β-estradiol to the media thus renders newborn daughters inviable without affecting existing mother cells, preventing exponential growth of the cell population and nutrient depletion (FIG. 2A).
The High-Life method was then tested to determine if it was suitable to screening for compounds that extend replicative lifespan. […] The effect of these compounds on High-Life readings was assayed after 24 hours in culture at 10 μM concentration. As a positive control, ibuprofen was used.

S. cerevisiae = format: cell-based
Method: To obtain the single-cell level data for the age and generation-durations of replicatively aging mother cells, data reported in Liu, P., et al., Cell Rep. 634-644 (2015) was re-analyzed. The data was collected in the same media condition (CSM 2% glucose) as reported elsewhere herein. Cells were grown for ˜24 hours in CSM 2% glucose prior to loading to the microfluidic device. Once cells were loaded, media was swapped to provide CSM 2% glucose control media (untreated), media containing DMSO as a vehicle control (American Bio AB00435), media containing 10 μM terreic acid (Sigma SML0480), media containing 10 μM mycophenolic acid (Sigma M5255), or media containing another compound at the indicated concentration. An automated microscope was used to track […], and replicative lifespan was later determined by counting the number of daughters produced before death. In the case of compound validation, only newborn cells were included in the lifespan experiment. To compare the replicative lifespan of labeled and unlabeled cells, only cells that were present within the traps at the start of the experiment were included. For these experiments, cells were loaded to the microfluidic device at an increased rate of 100 μL/min to increase the number of trapped mother cells. Green fluorescent images were also taken at the start of the experiment to confirm that the cells were visibly labeled.
Differences in lifespan characteristics were assessed through Log-Rank test using MATLAB with a cut-off value of P=0.05. The script for Log-Rank test was downloaded from MATLAB. Differences in proteasome activity were assessed using the unpaired, two-tailed, parametric t-test function of the GraphPad Prism software.
The Longevity Placement Test (LPT) was designed as a mutually exclusive, collectively exhaustive test to determine the relationship of a longevity intervention to a known genetic regulator of lifespan. For a given intervention that extends lifespan, any of three possible relationships may exist relative to a known genetic regulator of lifespan. (1) The intervention may act to extend lifespan independently from the known regulator. (2) The […] may act downstream from the known regulator, converging on a single component of the known regulator's lifespan pathway. (3) The intervention may act upstream from or upon the known regulator, ultimately modulating lifespan through the genetic regulator.
In Step 1 of the LPT, the longevity intervention is applied to a strain in which a genetic regulator of lifespan is deleted. In the event that lifespan extension from the longevity intervention is observed in this background, only possibilities (1) and (2) above remain valid (FIG. 7B). If no lifespan extension is observed, then possibilities (2) and (3) remain valid. Possibility (2) cannot be ruled out in this step, since non-saturating action by the genetic regulator could leave room for lifespan extension by the longevity intervention, while saturating action would preclude it.
In Step 2 of the LPT, an epistatic agent, which prevents lifespan extension from the longevity agent, is applied to a strain in which some upstream member of the genetic regulator's lifespan pathway has been modified to extend lifespan. This step differentiates possibility (2) from the remaining possibility after Step 1. In the event that lifespan extension from the genetic regulator's pathway is suppressed by the epistatic agent, this determines that possibility (2) is correct. In the event that no epistasis is observed, the remaining possibility, (1) or (3), is correct (FIG. 7C).

How did the “average High-Life readings (progenitor fraction viable vs CF405M intensity) relative to controls” value (Saccharomyces cerevisiae) turn out when `COc1c(C)c2c(c(O)c1C/C=C(\C)CCC(=O)O)C(=O)OC2` [mycophenolic acid] was run?
Its value is “at least slightly above controls”.

And the “lifespan extension with treatment for only part of the lifespan” value (S. cerevisiae; 10 μM MPA only first 24 hours or only after first 24 hours, compared to whole-lifespan treatment)?
Its value is “reduced lifespan extension compared to whole-lifespan treatment”.

And the “lifespan extension with pulse treatment” value (S. cerevisiae; 10 μM MPA, 6-hour pulse between 24th and 30th hour)?
The value was “little to no lifespan extension”.

And the “extension of mean RLS” value (S. cerevisiae; 10 μM compound, wild-type haploid cells, Replicator device)?
The value was 20%.

What about the “lifespan in ΔSIR2ΔFOB1 background (LPT step 1)” value (S. cerevisiae; absence of SIR2, ΔSIR2ΔFOB1 background) of the same compound?
Its value is “able to extend the lifespan”.

What about the “lifespan in ΔHXK2 strain (LPT step 1)” value (S. cerevisiae; long-lived ΔHXK2 strain) of the same compound?
Its value is “further extended lifespan”.

And the “lifespan in ΔTOR1 strain (LPT step 1)” value (S. cerevisiae; long-lived ΔTOR1 strain)?
Its value is “further extended lifespan”.

What about the “replicative lifespan (RLS) with and without supplemental guanine” value (S. cerevisiae; wild-type haploid yeast BY4741, MPA without supplemental guanine vs control and guanine supplemented) of the same compound?
Its value is “extended longevity”.

What about the “RLS in ΔPRE9 strain” value (S. cerevisiae; ΔPRE9 strain) of the same compound?
Its value is “extends RLS”.

And the “RLS in ΔUBR2 strain (LPT step 1)” value (S. cerevisiae; ΔUBR2 strain)?
Its value is “moderately, but not significantly, extended RLS”.

From US20200108043A1, “COMPOUNDS AND COMPOSITIONS FOR EXTENDING LIFESPAN OF A SUBJECT” (YALE UNIVERSITY, priority 2017, published 2020)
